pEC50: −log10 of the molar value.
Target: T1, sGC α1/β1 heterodimer (Homo sapiens, UniProt Q02108+Q02153)
T1 construct: expressed in transfected cells; host or cells: CHO-K1 (clone #7, CHO-K1/sGC)
T1 sequence (Q02108 1-690): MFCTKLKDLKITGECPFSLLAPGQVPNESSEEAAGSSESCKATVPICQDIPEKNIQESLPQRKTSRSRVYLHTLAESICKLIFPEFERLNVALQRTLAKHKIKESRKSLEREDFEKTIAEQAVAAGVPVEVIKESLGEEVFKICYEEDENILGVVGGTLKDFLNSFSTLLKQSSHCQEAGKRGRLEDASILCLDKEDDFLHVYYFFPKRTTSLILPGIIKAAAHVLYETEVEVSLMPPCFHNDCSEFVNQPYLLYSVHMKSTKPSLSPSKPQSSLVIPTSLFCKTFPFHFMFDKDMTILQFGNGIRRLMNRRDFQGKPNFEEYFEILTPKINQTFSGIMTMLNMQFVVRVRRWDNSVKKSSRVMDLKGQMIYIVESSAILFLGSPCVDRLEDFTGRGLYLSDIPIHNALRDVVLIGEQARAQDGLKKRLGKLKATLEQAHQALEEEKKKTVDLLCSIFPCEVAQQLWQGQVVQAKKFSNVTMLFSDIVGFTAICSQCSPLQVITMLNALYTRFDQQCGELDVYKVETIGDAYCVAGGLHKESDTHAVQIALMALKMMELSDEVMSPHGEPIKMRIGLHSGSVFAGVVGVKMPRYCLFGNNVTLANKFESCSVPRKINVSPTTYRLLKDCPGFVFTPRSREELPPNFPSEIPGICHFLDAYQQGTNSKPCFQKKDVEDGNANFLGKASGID
T1 sequence (Q02153 1-619): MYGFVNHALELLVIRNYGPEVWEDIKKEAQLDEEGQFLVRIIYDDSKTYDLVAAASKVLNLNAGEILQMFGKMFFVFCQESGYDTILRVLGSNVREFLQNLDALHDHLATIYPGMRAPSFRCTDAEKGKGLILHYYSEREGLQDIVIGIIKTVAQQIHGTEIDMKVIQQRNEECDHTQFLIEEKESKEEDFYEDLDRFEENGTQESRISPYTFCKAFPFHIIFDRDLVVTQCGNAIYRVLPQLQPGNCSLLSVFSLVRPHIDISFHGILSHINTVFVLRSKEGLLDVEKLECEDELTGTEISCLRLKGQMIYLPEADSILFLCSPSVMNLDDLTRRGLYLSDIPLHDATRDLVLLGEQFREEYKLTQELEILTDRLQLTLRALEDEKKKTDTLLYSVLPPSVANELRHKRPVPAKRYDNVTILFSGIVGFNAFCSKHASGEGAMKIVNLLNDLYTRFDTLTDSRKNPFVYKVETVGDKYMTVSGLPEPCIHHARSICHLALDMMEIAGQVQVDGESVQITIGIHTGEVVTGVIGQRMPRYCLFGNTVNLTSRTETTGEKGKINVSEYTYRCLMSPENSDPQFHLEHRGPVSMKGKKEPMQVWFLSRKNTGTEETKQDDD
Test: Cell-based sGC functional assay (CASA assay): cGMP generation in CHO-K1/sGC cells, HTRF detection
Settings: for Emax: CHO-K1, percent activation relative to standard Compound A in CHO-K1/sGC cells, read-out: % Act.; for pEC50: inflection point (IP) of cGMP generation in CHO-K1/sGC cells, 4P fit, activity expressed as percentage of Compound A
Outline: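 Stable CHO-K1/sGC cells in EBSS buffer with 5 mM MgCl2, 0.05% BSA and 0.5 mM IBMX were incubated with compound (2.5% DMSO final) ±1 μM DETA-NO for 1 hr at 37° C. cGMP was measured by HTRF. Activation is expressed as % of reference HDA Compound A maximum, with IP and max fold induction from a 4P fit.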

Row | Emax [%] | pEC50 | SMILES
1 | 116 | 6.50 | CC1(c2ccc(F)cc2)C(=O)Nc2nc(-c3cn4ccnc4c(CCC(F)(F)C(F)(F)F)n3)nc(N3CCCC3)c21 (stereo not drawn) [Example 301A, 5-(4-fluorophenyl)-5-methyl-2-(8-(3,3,4,4,4-pentafluorobutyl)imidazo[1,2-a]pyrazin-6-yl)-4-(pyrrolidin-1-yl)-5H-pyrrolo[2,3-d]pyrimidin-6(7H)-one]
2 | 105 | 6.26 | CC1(C)CN(c2nc(-c3cn4ccnc4c(CCC(F)(F)C(F)(F)F)n3)nc3c2C(C)(c2ccc(F)cc2)C(=O)N3)C1 (stereo not drawn) [Example 302A, 4-(3,3-dimethylazetidin-1-yl)-5-(4-fluorophenyl)-5-methyl-2-(8-(3,3,4,4,4-pentafluorobutyl)imidazo[1,2-a]pyrazin-6-yl)-5H-pyrrolo[2,3-d]pyrimidin-6(7H)-one]
3 | 101 | 6.37 | C[C@@H]1CN(c2nc(-c3cn4ccnc4c(CCC(F)(F)C(F)(F)F)n3)nc3c2C(C)(c2ccc(F)cc2)C(=O)N3)C[C@H](C)O1 (stereo partly drawn) [Example 303A, 4-((2R,6S)-2,6-dimethylmorpholino)-5-(4-fluorophenyl)-5-methyl-2-(8-(3,3,4,4,4-pentafluorobutyl)imidazo[1,2-a]pyrazin-6-yl)-5H-pyrrolo[2,3-d]pyrimidin-6(7H)-one]
4 | 89 | 6.38 | CC1(C)CN(c2nc(-c3cn4ccnc4c(CCC(F)(F)C(F)(F)F)n3)nc3c2C(C)(c2ccc(F)cc2)C(=O)N3)CCO1 (stereo not drawn) [Example 304A, 4-(2,2-dimethylmorpholino)-5-(4-fluorophenyl)-5-mehtyl-2-(8-(3,3,4,4,4-pentafluorobutyl)imidazo[1,2-a]pyrazin-6-yl)-5H-pyrrolo[2,3-d]pyrimidin-6(7H)-one]
5 | 158 | 6.83 | CC1CN(c2nc(-c3cn4ccnc4c(CCC(F)(F)C(F)(F)F)n3)nc3c2C(C)(c2ccc(F)cc2)C(=O)N3)C1 (stereo not drawn) [Example 305A, 5-(4-fluorophenyl)-5-methyl-4-(3-methylazetidin-1-yl)-2-(8-(3,3,4,4,4-pentafluorobutyl)imidazo[1,2-a]pyrazin-6-yl)-5H-pyrrolo[2,3-d]pyrimidin-6(7H)-one]
6 | 108 | 6.97 | CC1(c2ccc(F)cc2)C(=O)Nc2nc(-c3cn4ccnc4c(CCC(F)(F)C(F)(F)F)n3)nc(N3CCC3)c21 (stereo not drawn) [Example 306A, 4-(azetidin-1-yl)-5-(4-fluorophenyl)-5-methyl-2-(8-(3,3,4,4,4-pentafluorobutyl)imidazo[1,2-a]pyrazin-6-yl)-5H-pyrrolo[2,3-d]pyrimidin-6(7H)-one]
7 | 93 | 6.82 | CNc1nc(-c2cn3ccnc3c(CCC(F)(F)C(F)(F)F)n2)nc2c1C(C)(c1ccc(F)cc1)C(=O)N2 (stereo not drawn) [Example 307A, 5-(4-fluorophenyl)-5-methyl-4-(methylamino)-2-(8-(3,3,4,4,4-pentafluorobutyl)imidazo[1,2-a]pyrazin-6-yl)-5H-pyrrolo[2,3-d]pyrimidin-6(7H)-one]
8 | 126 | 6.55 | CN(C)c1nc(-c2cn3ccnc3c(CCC(F)(F)C(F)(F)F)n2)nc2c1C(C)(c1ccc(F)cc1)C(=O)N2 (stereo not drawn) [Example 308A, 4-(dimethylamino)-5-(4-fluorophenyl)-5-methyl-2-(8-(3,3,4,4,4-pentafluorobutyl)imidazo[1,2-a]pyrazin-6-yl)-5H-pyrrolo[2,3-d]pyrimidin-6(7H)-one]
9 | 97 | 7.41 | COCCNc1nc(-c2cn3ccnc3c(CCC(F)(F)C(F)(F)F)n2)nc2c1C(C)(c1ccc(F)cc1)C(=O)N2 (stereo not drawn) [Example 309A, 5-(4-fluorophenyl)-4-((2-methoxyethyl)amino)-5-methyl-2-(8-(3,3,4,4,4-pentafluorobutyl)imidazo[1,2-a]pyrazin-6-yl)-5H-pyrrolo[2,3-d]pyrimidin-6(7H)-one]
10 | 77 | 7.35 | CC1(c2ccc(F)cc2)C(=O)Nc2nc(-c3cn4ccnc4c(CCC(F)(F)C(F)(F)F)n3)nc(N3CCOCC3)c21 (stereo not drawn) [Example 310A, 5-(4-fluorophenyl)-5-methyl-4-morpholino-2-(8-(3,3,4,4,4-pentafluorobutyl)imidazo[1,2-a]pyrazin-6-yl)-5H-pyrrolo[2,3-d]pyrimidin-6(7H)-one]
11 | 93 | 7.60 | CN(C)c1nc(-c2cn3ccnc3cn2)nc2c1C(C)(c1ccc(Cl)cc1)C(=O)N2 (stereo not drawn) [Example 312A]
12 | 93 | 7.60 | COCCNc1nc(-c2cn3ccnc3c(CCC(F)(F)C(F)(F)F)n2)nc2c1C(C)(C)C(=O)N2 [Example 313, 4-((2-Methoxyethyl)amino)-5,5-dimethyl-2-(8-(3,3,4,4,4-pentafluorobutyl)imidazo[1,2-a]pyrazin-6-yl)-5H-pyrrolo[2,3-d]pyrimidin-6(7H)-one]
13 | 204 | 7.07 | CCc1nc(C2(C)C(=O)Nc3nc(-c4cn5ccnc5c(CCC(F)(F)C(F)(F)F)n4)nc(N)c32)no1 (stereo not drawn) [Example 320B, 4-amino-5-(5-ethyl-1,2,4-oxadiazol-3-yl)-5-methyl-2-(8-(3,3,4,4,4-pentafluorobutyl)imidazo[1,2-a]pyrazin-6-yl)-5H-pyrrolo[2,3-d]pyrimidin-6(7H)-one]
14 | 129 | 6.09 | Nc1nc(-c2cn3ccnc3c(CCC(F)(F)F)n2)nc2c1C(c1ccc(C(F)(F)F)cn1)(C1CC1)C(=O)N2 (stereo not drawn) [Example 340A, 4-amino-5-cyclopropyl-5-(5-(trifluoromethyl)pyridin-2-yl)-2-(8-(3,3,3-trifluoropropyl)imidazo[1,2-a]pyrazin-6-yl)-5H-pyrrolo[2,3-d]pyrimidin-6(7H)-one]
15 | 106 | 5.68 | CCCc1nc(-c2nc(N)c3c(n2)NC(=O)C3(c2ccc(C(F)(F)F)cn2)C2CC2)cn2ccnc12 (stereo not drawn) [Example 341A, 4-amino-5-cyclopropyl-2-(8-propylimidazo[1,2-a]pyrazin-6-yl)-5-(5-(trifluoromethyl)pyridin-2-yl)-5H-pyrrolo[2,3-d]pyrimidin-6(7H)-one]
16 | 121 | 7.34 | COc1ccc(C2(C3CC3)C(=O)Nc3nc(-c4cn5ccnc5c(CCC(F)(F)C(F)(F)F)n4)nc(N)c32)cn1 (stereo not drawn) [Example 343A, 4-amino-5-cyclopropyl-5-(6-methoxypyridin-3-yl)-2-(8-(3,3,4,4,4-pentafluorobutyl)imidazo[1,2-a]pyrazin-6-yl)-5H-pyrrolo[2,3-d]pyrimidin-6(7H)-one]
17 | 126 | 6.41 | Nc1nc(-c2cn3ccnc3c(CCC(F)(F)F)n2)nc2c1C(c1ncc(Cl)cn1)(C1CC1)C(=O)N2 (stereo not drawn) [Example 374A, 4-amino-5-(5-chloropyrimidin-2-yl)-5-cyclopropyl-2-(8-(3,3,3-trifluoropropyl)imidazo[1,2-a]pyrazin-6-yl)-5H-pyrrolo[2,3-d]pyrimidin-6(7H)-one]
18 | 149 | 6.34 | Nc1nc(-c2cn3ccnc3c(CCC(F)(F)C(F)(F)F)n2)nc2c1C(c1ccccn1)(C1CC1)C(=O)N2 (stereo not drawn) [Example 382B, 4-Amino-5-cyclopropyl-2-(8-(3,3,4,4,4-pentafluorobutyl)imidazo[1,2-a]pyrazin-6-yl)-5-(pyridin-2-yl)-5H-pyrrolo[2,3-d]pyrimidin-6(7H)-one]

Reference: patent US9796733B2, “Imidazo-pyrazine derivatives useful as soluble guanylate cyclase activators” (Merck Sharp & Dohme Corp., priority 2014, dated 2017)
